46 molecules from US20080214606A1, “Methods for the Identification and Use of Compounds Suitable for the Treatment of Drug Resistant Cancer Cells” (The Government of the United States of America as …, priority 2004, published 2008) can be followed below.

T1 sequence (P33897 whole entry): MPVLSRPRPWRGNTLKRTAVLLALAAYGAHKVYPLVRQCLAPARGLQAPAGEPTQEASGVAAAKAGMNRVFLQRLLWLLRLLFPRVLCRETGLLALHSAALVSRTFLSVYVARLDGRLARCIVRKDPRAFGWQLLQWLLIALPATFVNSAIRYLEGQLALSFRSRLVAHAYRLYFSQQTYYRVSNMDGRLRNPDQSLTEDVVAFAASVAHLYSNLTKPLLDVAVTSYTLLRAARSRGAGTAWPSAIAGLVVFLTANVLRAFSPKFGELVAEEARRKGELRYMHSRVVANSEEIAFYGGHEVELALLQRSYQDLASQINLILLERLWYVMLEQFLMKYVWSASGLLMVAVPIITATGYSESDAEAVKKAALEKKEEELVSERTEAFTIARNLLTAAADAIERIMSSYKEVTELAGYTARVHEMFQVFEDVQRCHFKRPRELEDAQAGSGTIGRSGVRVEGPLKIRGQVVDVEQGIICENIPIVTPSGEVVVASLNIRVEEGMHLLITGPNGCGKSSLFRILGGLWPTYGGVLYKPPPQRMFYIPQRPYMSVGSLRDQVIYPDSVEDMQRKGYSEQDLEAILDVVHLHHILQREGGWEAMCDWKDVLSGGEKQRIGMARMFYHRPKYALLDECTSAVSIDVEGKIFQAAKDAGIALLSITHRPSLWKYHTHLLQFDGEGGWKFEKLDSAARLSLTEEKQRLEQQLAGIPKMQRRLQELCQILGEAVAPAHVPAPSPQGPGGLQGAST
ABCB1, sequence (P08183 whole entry): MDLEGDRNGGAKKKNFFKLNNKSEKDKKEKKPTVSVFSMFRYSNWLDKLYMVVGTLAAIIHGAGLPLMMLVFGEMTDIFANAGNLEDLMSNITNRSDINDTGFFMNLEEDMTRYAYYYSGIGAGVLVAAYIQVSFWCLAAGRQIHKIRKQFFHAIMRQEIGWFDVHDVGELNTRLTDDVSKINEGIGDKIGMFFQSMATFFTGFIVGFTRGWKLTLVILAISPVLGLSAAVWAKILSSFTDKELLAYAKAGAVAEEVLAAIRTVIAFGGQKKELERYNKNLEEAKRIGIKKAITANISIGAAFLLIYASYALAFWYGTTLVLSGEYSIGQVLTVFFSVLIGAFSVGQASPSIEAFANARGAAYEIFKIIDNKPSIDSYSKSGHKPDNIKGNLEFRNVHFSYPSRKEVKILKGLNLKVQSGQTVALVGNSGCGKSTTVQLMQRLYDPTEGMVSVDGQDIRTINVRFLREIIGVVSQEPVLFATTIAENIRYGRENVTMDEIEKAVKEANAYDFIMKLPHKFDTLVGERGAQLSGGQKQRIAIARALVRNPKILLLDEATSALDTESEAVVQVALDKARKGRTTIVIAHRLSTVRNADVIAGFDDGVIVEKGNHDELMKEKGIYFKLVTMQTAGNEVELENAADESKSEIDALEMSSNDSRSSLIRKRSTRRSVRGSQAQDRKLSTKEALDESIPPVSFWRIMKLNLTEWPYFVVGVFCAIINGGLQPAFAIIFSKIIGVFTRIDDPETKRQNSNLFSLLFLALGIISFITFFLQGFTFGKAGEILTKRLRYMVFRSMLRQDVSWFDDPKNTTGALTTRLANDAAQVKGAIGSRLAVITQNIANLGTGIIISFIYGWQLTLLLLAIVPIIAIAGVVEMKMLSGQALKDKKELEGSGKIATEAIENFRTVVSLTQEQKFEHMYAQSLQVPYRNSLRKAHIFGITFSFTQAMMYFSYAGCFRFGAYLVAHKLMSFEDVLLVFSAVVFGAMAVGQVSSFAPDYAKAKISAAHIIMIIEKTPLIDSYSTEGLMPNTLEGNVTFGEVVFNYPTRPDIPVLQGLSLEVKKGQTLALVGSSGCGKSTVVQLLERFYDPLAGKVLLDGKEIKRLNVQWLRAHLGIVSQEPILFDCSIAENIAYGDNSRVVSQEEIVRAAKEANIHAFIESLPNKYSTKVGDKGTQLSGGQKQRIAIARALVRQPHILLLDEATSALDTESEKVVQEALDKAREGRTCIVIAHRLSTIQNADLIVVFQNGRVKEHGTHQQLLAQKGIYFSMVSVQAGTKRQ

One data set concerns the target ABCB1 (Homo sapiens, UniProt P08183). The data set is described as follows: Correlation of ABCB1 expression with drug sensitivity across the NCI-60.
Conditions: not given
The protocol:
Expression levels are measured by real-time quantitative RT-PCR using the LightCycler RNA Amplification SYBR Green kit and a LightCycler machine (Roche Biochemicals, Indianapolis, Ind.). Specific oligonucleotide probes are designed for each of the ABC transporters using DNAStar Primer Select (DNASTAR Inc.), and they may be synthesized at Lofstrand Laboratories (Gaithersburg, Md.). When possible, the amplicons are designed to encompass exon-intron boundaries to avoid amplification of genomic DNA. Since the Syber Green assay detects accumulation of double stranded DNA, primers are selected (from a battery consisting of about 200 primers) that amplified a single product of the correct size.
RT-PCR is carried out on 150 ng total RNA, in the presence of 250 nM specific primers. Following reverse transcription (20 min at 50° C.), the PCR reaction consists of 45 cycles of denaturation (15 sec at 95° C.), annealing (30 sec at 58° C.), and elongation (30 sec at 72° C.). No-template (water) reaction mixtures are prepared as negative controls.
During PCR amplification, fluorescence emission is measured and recorded in real time by the LightCycler. Crossing point values are calculated, using the LightCycler software package, by the Fit Points analysis method, with baseline fluorescence set at 1. The SyberGreen assay measures accumulation of double-stranded products, and the appearance of primer dimers limits quantitation at high cycle numbers. […] The raw results are expressed as number of cycles to reach the crossing point. If the desired product is not detected, the corresponding value is adjusted to crossing points indicating no expression. To assess the contribution of experimental artifacts, selected cell lines are assessed in replicate.
Both sets are available at http://discover.nci.nih.gov. The two are combined to form a joint dataset that includes 1429 compounds.
To determine quantitatively how well the 47 genes cluster the cell lines by their tissues of origin, a statistical method is employed wherein the kappa statistic is used to indicate how well the observed clusters correspond to the nine tissue-of-origin classifications. […] To control the overall false type 1 error rate, both a step-down procedure (Westfall and Young, 1993, Resampling-Based Multiple Testing: Examples and Methods for p-value Adjustment (New York: Wiley)) and a step-up procedure (Reiner et al., 2003, Bioinformatics 19:368-375) were employed to adjust for multiple testing of all 47 genes simultaneously. In the Benjamini-Hochberg procedure the p-values are computed in the standard way by permutation, assuming that all distributions are exchangeable: the number of values in the permuted data with correlations over a threshold, divided by the number of compounds and by the number of permutations. In this analysis, the False Discovery Rate (q-value) at which each compound would be declared was calculated using the step-up procedure for positively correlated test statistics (again true because all correlations being compared are computed against the same ABC gene): in this procedure the first q-value for the largest correlation is the Bonferroni-corrected p-value for that gene; then further q-values are calculated as qj=max(pj*1429/j, qj-1). This procedure limits the expected proportion of false positives in the list 1, . . . , j to at most qj.
As to `O=c1cc(O)ccn1[C@@H]1O[C@H](CO)[C@@H](O)[C@H]1O` [NSC 126849], the “Pearson's Correlation Coeff” value is listed as 0.2357.

As to `NC(=O)c1[nH]nc([C@@H]2O[C@H](CO)[C@@H](O)[C@H]2O)c1O` [NSC 143095], the “Pearson's Correlation Coeff” value turned out to be 0.2763. On to `O=C(CCc1nnc2s/c(=C\c3ccc4c(c3)OCO4)c(=O)n12)Nc1cc(Cl)ccc1Cl` [NSC 635543], for which the “Correlation of antiproliferative activity with ABCB1 expression” value (shortened to “Correlation … with ABCB1 expression”) amounted to 0.3514. With `C[N+]1(C)C/C(=C\C=C\c2ccccc2)C(=O)/C(=C/C=C/c2ccccc2)C1.[I-]` [NSC 636679], the Correlation is given as −0.5530. As for `c1cc(-c2cn3ccsc3n2)ccn1` [NSC 641288], the “Correlation … with ABCB1 expression” value was 0.3643. Still for that read-out and setting: the value for `CC(C)OC(=S)Nc1ccc(Cl)c(/C=N/OC(C)(C)C)c1` [NSC 645542] was 0.3924.

Take `O=C1c2c(nc3ccccc3c2-c2ccccc2)CN1Nc1ccccn1` [NSC 648072]: the “Correlation … with ABCB1 expression” value was 0.3579. For `CC[C@]12C=CCN3CCC4(c5cc([C@@]6(C(=O)OC)CC7CN(CCc8c6[nH]c6ccccc86)C[C@@H]6CCC[C@H]76)c(OC)cc5N(C)C4[C@](O)(C(=O)OC)C1OC(C)=O)C32.COS(=O)(=O)O` (some centres unmarked) [NSC 651727], the Correlation is recorded as −0.3910. As to `[Se]=P(c1ccccc1)(c1ccccc1)c1ccc(C(c2ccccc2)=P(c2ccccc2)(c2ccccc2)c2ccccc2)cc1` [NSC 676864], the Correlation is −0.6546. Consider `[N-]=[N+]=CC(=O)OC1Cc2ccccc2C1` [NSC 679285], for which the “Correlation … with ABCB1 expression” value stood at 0.3504. For the molecule `COc1c(C)c(C/C=C(\C)CCCCO[Si](c2ccccc2)(c2ccccc2)C(C)(C)C)c(OC)c(OC)c1OC` [NSC 687141], the “Correlation … with ABCB1 expression” value stood at 0.3774. Regarding `CCCCCCOc1ccc(C(=O)N(C)O)cc1` [NSC 692758], the “Pearson's Correlation Coeff” value is given as 0.4825. Take `CN(O)C(=O)c1ccc(OCc2cccc(Cl)c2)cc1` [NSC 692759]: the “Pearson's Correlation Coeff” value turned out to be 0.4149. For `CC(/C=N/NC(=S)N1CCCCC1)=N/NC(=S)N1CCCCC1` [NSC 693326], the “Correlation … with ABCB1 expression” value worked out at 0.3892.

As for `COC(=O)CN(CC(O)C(NC(C)=O)C(O)C=O)C(=O)OCc1ccccc1` (centres unmarked) [NSC 693931], the “Correlation … with ABCB1 expression” value is 0.3708. Same read-out and setting: the value for `CC(C)=CCC[C@@H](C)C1=C(N)C(=O)C(C)=C(O)C1=O` [NSC 697124] was 0.4636. Same read-out and setting: next, `CC(C)=CCC[C@@H](C)C1=C(O)C(Nc2ccccc2Cl)=C(C)C(=O)C1=O` [NSC 697132]: 0.3558.

As for `CCC1=NC(N/N=C/c2ccccc2O)=N/C1=C\c1ccccc1O` [NSC 697678], the “Correlation … with ABCB1 expression” value is reported as 0.4314. Still for that read-out and setting: next, `O=C(/C=C/c1ccccc1)CSc1nc2ccc(I)cc2c(=O)n1Cc1ccccc1` [NSC 715729]: 0.3544. Turning to `COc1cccc2c1C(=O)c1c(O)c3c(c(O)c1C2=O)C[C@@](O)(C(=O)CO)C[C@@H]3O[C@H]1C[C@H](N)[C@H](O)[C@H](C)O1` [doxorubicin, reference compound], the “Relationship between drug sensitivity and ABCB1 expression (in words)” value was “striking inverse correlations”.

As for `COC1=C2C[C@@H](C)C[C@H](OC)[C@H](O)[C@@H](C)/C=C(\C)[C@H](OC(N)=O)[C@@H](OC)/C=C\C=C(/C)C(=O)NC(=CC1=O)C2=O` [geldamycin, reference compound], the “Relationship between drug sensitivity and ABCB1 expression (in words)” value is “striking inverse correlations”. Same read-out and setting: the value for `NC(=O)NO` [hydroxyurea, reference compound] was “non-correlated or positively correlated”; that for `CN(Cc1cnc2nc(N)nc(N)c2n1)c1ccc(C(=O)N[C@@H](CCC(=O)O)C(=O)O)cc1` [methotrexate, reference compound] was “non-correlated or positively correlated”.

For `CC(=O)O[C@H]1C(=O)[C@@]2(C)[C@H]([C@H](OC(=O)c3ccccc3)[C@]3(O)C[C@H](OC(=O)[C@H](O)[C@@H](NC(=O)c4ccccc4)c4ccccc4)C(C)=C1C3(C)C)[C@]1(OC(C)=O)CO[C@@H]1C[C@@H]2O` [paclitaxel, reference compound], the “Relationship between drug sensitivity and ABCB1 expression (in words)” value is “striking inverse correlations”. On the same count and under the same terms, next, `CC[C@]1(O)C[C@@H]2CN(CCc3c([nH]c4ccccc34)[C@@](C(=O)OC)(c3cc4c(cc3OC)N(C)[C@H]3[C@@](O)(C(=O)OC)[C@H](OC(C)=O)[C@]5(CC)C=CCN6CC[C@]43[C@@H]65)C2)C1` [vinblastine, reference compound]: “striking inverse correlations”.

Still in this data set, the particulars now being: set of 118 compounds with putatively known mechanisms of action, FIG. 2.
Consider `C(=N\NC1=NCCN1)/c1c2ccccc2c(/C=N/NC2=NCCN2)c2ccccc12` [bisantrene, reference compound], for which the “Relationship between drug sensitivity and ABCB1 expression (in words)” value is “striking inverse correlations”.

A further data set has as its target T1, ABCD1 (Homo sapiens, UniProt P33897).
T1 construct: profiled in 60 diverse cancer cell lines (the NCI-60) using real-time RT-PCR; endogenous in cells; host or cells: NCI-60 human cancer cell lines
The data set is described as follows: Correlation of ABCD1 expression with drug sensitivity across the NCI-60. It counts as cell-based. The conditions noted are these: Pearson correlation of ABCD1 expression with sensitivity of the 60 cell lines; 1429 compounds; inverse, p < 0.0001.
Take `COc1ccc2[nH]c3c(C)c4ccncc4c(C)c3c2c1` [NSC 69187]: the Correlation is given as −0.5711. `Cc1c2ccncc2c(C)c2c1[nH]c1ccccc12` [NSC 71795] had a Correlation of −0.4642. On the same count and under the same terms, next, `Nc1nc(=S)c2ncn(C3CC(O)C(CO)O3)c2[nH]1` (centres unmarked) [NSC 71851]: −0.4425; `O=c1cc(O)ccn1[C@@H]1O[C@H](CO)[C@@H](O)[C@H]1O` [NSC 126849]: −0.4214. Same read-out and setting: the value for `NC(=O)c1[nH]nc([C@@H]2O[C@H](CO)[C@@H](O)[C@H]2O)c1O` [NSC 143095] was −0.5337; that for `Cc1c2ccncc2c(C)c2c1[nH]c1ccc(OCCN(C)C)cc12` [NSC 338258] was −0.5453; that for `COc1ccc2c(c1)-c1nn(CCCN(C)C)c3ccc([N+](=O)[O-])c(c13)N2` [NSC 627168] was −0.4599. Same read-out and setting: next, `OCCOc1ccc(-c2cc(-c3ccccn3)nc(-c3ccccn3)c2)cc1` [NSC 640499]: −0.4694; `CCN(CC)CCn1ccc(=O)c2cc3c(=O)ccn(CCN(CC)CC)c3c(C)c21` [NSC 645161]: −0.5134. In turn, `CCN(CC)CCNc1ccc2ncn3c4ccc(OC)cc4c(=O)c1c23` [NSC 645812] yielded a Correlation of −0.4825.

`COc1ccc2c(c1)c(=O)c1c(NCCCN(C)C)ccc3ncn2c31.Cl` [NSC 645813] had a Correlation of −0.4824.

On to `CCN(CC)CCCNc1ccc2nnn3c4ccc(O)cc4c(=O)c1c23` [NSC 645814], for which the Correlation is recorded as −0.4346. The same measure, in the same setting: next, `CN(C)CCCNc1ccc2nnn3c4ccc(O)cc4c(=O)c1c23` [NSC 645830]: −0.4258. `CCN(CC)CCCNc1ncc(C)c2c1c1ccc3c(O)cccc3c1n2C` [NSC 653438]: the Correlation was −0.4252. On the same count and under the same terms, the value for `c1ccc2c(c1)Nc1cccc3c1c-2nc1ccccc13` [NSC 670692] was −0.4001. Still for that read-out and setting: next, `O=C1/C(=C/c2ccc(F)cc2)CNC/C1=C\c1ccc(F)cc1` [NSC 685126]: −0.4464; `CN(C)CCCNc1ccc2c(=O)n(CCN(C)C)c(=O)n3c4ccccc4c(=O)c1c23` [NSC 687308]: −0.4236. Same read-out and setting: next, `CCCCCCOc1ccc(C(=O)N(C)O)cc1` [NSC 692758]: −0.5012. Regarding `CN(O)C(=O)c1ccc(OCc2cccc(Cl)c2)cc1` [NSC 692759], the Correlation is −0.5034.

For a further data set, the target named is T2, ABCC2 (Homo sapiens, UniProt Q92887).
T2 construct: profiled in 60 diverse cancer cell lines (the NCI-60) using real-time RT-PCR; endogenous in cells; host or cells: NCI-60 human cancer cell lines
T2 sequence (Q92887 whole entry): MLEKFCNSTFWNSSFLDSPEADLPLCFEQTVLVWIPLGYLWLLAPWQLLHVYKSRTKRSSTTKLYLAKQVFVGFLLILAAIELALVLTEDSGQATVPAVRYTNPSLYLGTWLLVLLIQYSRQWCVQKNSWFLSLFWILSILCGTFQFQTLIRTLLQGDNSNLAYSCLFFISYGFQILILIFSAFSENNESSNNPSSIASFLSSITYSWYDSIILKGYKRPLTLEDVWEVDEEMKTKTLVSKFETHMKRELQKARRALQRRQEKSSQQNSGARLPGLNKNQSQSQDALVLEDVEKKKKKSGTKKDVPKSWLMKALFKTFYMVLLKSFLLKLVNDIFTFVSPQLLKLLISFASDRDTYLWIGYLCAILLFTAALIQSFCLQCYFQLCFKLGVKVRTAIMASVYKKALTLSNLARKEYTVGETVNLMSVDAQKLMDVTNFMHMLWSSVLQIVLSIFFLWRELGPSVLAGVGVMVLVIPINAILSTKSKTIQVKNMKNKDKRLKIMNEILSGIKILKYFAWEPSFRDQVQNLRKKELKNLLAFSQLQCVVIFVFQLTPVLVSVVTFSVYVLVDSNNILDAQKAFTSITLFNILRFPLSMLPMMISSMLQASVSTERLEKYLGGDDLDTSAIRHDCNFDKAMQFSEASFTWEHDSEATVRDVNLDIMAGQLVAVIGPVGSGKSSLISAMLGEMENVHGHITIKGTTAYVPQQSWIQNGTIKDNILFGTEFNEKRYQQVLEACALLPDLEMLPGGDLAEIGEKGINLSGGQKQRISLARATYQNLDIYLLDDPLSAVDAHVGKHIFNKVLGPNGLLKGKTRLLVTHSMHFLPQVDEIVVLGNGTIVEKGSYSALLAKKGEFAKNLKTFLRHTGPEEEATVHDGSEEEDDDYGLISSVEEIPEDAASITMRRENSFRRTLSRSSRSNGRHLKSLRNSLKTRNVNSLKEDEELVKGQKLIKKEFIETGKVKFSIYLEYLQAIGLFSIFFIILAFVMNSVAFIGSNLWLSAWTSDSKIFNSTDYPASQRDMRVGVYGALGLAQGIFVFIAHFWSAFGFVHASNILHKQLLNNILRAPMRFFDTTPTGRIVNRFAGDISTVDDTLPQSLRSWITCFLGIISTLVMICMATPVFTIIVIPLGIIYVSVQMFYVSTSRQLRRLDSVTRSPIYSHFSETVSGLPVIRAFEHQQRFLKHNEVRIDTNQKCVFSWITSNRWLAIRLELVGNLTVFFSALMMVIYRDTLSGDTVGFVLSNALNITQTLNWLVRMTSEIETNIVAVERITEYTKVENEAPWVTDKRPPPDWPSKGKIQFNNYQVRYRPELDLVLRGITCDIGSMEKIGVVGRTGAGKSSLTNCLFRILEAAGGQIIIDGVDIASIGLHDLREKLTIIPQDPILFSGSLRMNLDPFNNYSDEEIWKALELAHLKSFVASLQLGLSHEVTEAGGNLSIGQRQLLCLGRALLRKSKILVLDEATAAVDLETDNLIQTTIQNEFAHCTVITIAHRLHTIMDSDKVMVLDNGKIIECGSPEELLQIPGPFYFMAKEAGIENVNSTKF
In words: Correlation of ABCC2 expression with drug sensitivity across the NCI-60. It counts as cell-based. As to conditions: Pearson correlation of ABCC2 expression with sensitivity of the 60 cell lines; 1429 compounds; inverse, p < 0.0001.
Experimental: Expression levels are measured by real-time quantitative RT-PCR using the LightCycler RNA Amplification SYBR Green kit and a LightCycler machine (Roche Biochemicals, Indianapolis, Ind.). […] When possible, the amplicons are designed to encompass exon-intron boundaries to avoid amplification of genomic DNA. Since the Syber Green assay detects accumulation of double stranded DNA, primers are selected (from a battery consisting of about 200 primers) that amplified a single product of the correct size.
During PCR amplification, fluorescence emission is measured and recorded in real time by the LightCycler. Crossing point values are calculated, using the LightCycler software package, by the Fit Points analysis method, with baseline fluorescence set at 1. The SyberGreen assay measures accumulation of double-stranded products, and the appearance of primer dimers limits quantitation at high cycle numbers. The specificity of amplified products is verified by melting-curve analysis and agarose gel electrophoresis (not shown). The raw results are expressed as number of cycles to reach the crossing point. If the desired product is not detected, the corresponding value is adjusted to crossing points indicating no expression. To assess the contribution of experimental artifacts, selected cell lines are assessed in replicate.
`COc1cccc2c1C(=O)C=CC2=O` [NSC 618315] came in with a Correlation of −0.4247. The same measure, in the same setting: next, `CCCCCCCCCCCCCC(=O)NO` [NSC 634458]: −0.4326; `COC(=O)[C@@]12C(=O)C=CC(=O)[C@@H]1C1C(=CC2COC(C)=O)O[C@@H]2OC3(CCCCC3)O[C@H]12` (some centres unmarked) [NSC 637399]: −0.4969; `CN(C)CCC(=O)N1C/C(=C\c2ccc(Cl)c(Cl)c2)C(=O)/C(=C/c2ccc(Cl)c(Cl)c2)C1.Cl` [NSC 638645]: −0.5028.

`COc1cc(/C=C2\CCC(CN(C)C)C2=O)ccc1OC(=O)c1ccccc1.Cl` (centres unmarked) [NSC 639518] came in with a Correlation of −0.4350.
